Tested on: PDE1
Test: PDE1 enzyme inhibition assay
Format: biochemical
Details: PDE1 partially purified from bovine heart; 25° C.; varying concentrations; 1% DMSO vehicle
Text: In this example, dichloroflosequinan was subjected to biochemical enzyme assays to determine its respective percent inhibition of a variety of phosphodiesterases (PDE1–PDE6). The methods used have been adapted from those described in the scientific literature, see Hidaka and Asano “Human blood platelet 3′:5′ cyclic nucleotide phosphodiesterase. Isolation of low-Km and high Km phosphodiesterase.” Biochem. Biophys. […] Unhydrolyzed cAMP was bound to AGI-X2 resin, and the remaining [^3H]adenosine in the aqueous phase was quantitated by scintillation counting. • PDE2: PDE2 partially purified from human platelets was used. […] Unhydrolyzed cAMP was bound to AGI-X2 resin, and the remaining [^3H]adenosine in the aqueous phase was quantitated by scintillation counting. • PDE3: PDE3 partially purified from human platelets was used. […] Unhydrolyzed cAMP was bound to AGI-X2 resin, and the remaining [^3H]adenosine in the aqueous phase was quantitated by scintillation counting. • PDE4: PDE4 partially purified from human U-937 pronocytic cells was used. […] Unhydrolyzed cAMP was bound to AGI-X2 resin, and the remaining [^3H]adenosine in the aqueous phase was quantitated by scintillation counting. • PDE5: PDE5 partially purified from human platelets was used. […]

Q: How did the “inhibition of PDE1” value turn out when `Cn1cc([S+]([O-])C(Cl)Cl)c(=O)c2ccc(F)cc21` (stereo not shown) [dichloroflosequinan, 3-dichloromethylsulfinyl-7-fluoro-1-methyl-4-quinolone] was run?
A: greater than 50%
